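Where inhibition never reached the appropriate level, the endpoint shown equals the highest concentration tested. Otherwise, values were interpolated linearly from a five-concentration, 48-hour dose response in 96-well plates. Definition used: TGI = concentration required for complete inhibition of growth.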

Test systems include ACHN renal; CCRF-CEM leukemia; DU-145 prostate; EKVX NSCLC; HCC-2998 colon; HCT-116 colon; HOP-62 NSCLC; HOP-92 NSCLC; HT29 colon; IGROV1 ovarian; NCI/ADR-RES ovarian; OVCAR-5 ovarian; SF-268 CNS; SF-539 CNS; SK-MEL-28 melanoma; SN12C renal; U251 CNS; UO-31 renal; COLO 205 colon.
What all share (assay): inhibition of tumour cell growth, NCI panel, 48 h

Take `C[S+](C)CC(=O)c1ccc2c(c1)Sc1ccccc1O2`: the TGI with ACHN renal was 16.1 µM; in the test on CCRF-CEM leukemia, more than 100 µM; in the test on DU-145 prostate it was 11 µM; in the test on EKVX NSCLC, 14.4 µM; in the test with HCC-2998 colon it was 7.71 µM; in the test on HCT-116 colon, 7.32 µM. For the same compound, the TGI in the test with HOP-62 NSCLC is 28.4 µM; in the test with HOP-92 NSCLC it was 21.5 µM; in the test with HT29 colon, 9.15 µM; in the test with IGROV1 ovarian, 8.1 µM; in the test with NCI/ADR-RES ovarian, more than 39.7 µM; in the test on OVCAR-5 ovarian it was 18.8 µM. For the same compound, the TGI in the test on SF-268 CNS came to 14.6 µM; with SF-539 CNS it was 2.29 µM; in the test with SK-MEL-28 melanoma it was 25.1 µM; in the test on SN12C renal, 36.3 µM; in the test with U251 CNS it was 17.6 µM; in the test on UO-31 renal, 12 µM.
`CCSC1=N/C(=C/c2ccccc2O)C(=O)N1`: the TGI in the test on ACHN renal, with CCRF-CEM leukemia, in the test with COLO 205 colon, in the test on DU-145 prostate, in the test with EKVX NSCLC and in the test with HCC-2998 colon was more than 100 µM throughout. The TGI with HCT-116 colon, in the test with HOP-62 NSCLC, in the test on HOP-92 NSCLC, with HT29 colon, in the test on IGROV1 ovarian and with NCI/ADR-RES ovarian was more than 100 µM in each case. Moreover, the TGI was more than 100 µM in the test on OVCAR-5 ovarian; more than 100 µM in the test on SF-268 CNS; 91.8 µM in the test with SF-539 CNS; more than 100 µM with SK-MEL-28 melanoma; more than 100 µM in the test on SN12C renal; more than 100 µM in the test with U251 CNS. Besides, the TGI with UO-31 renal was more than 100 µM.
As to `CC(=O)Oc1cc(C)c(OC(C)=O)c2c1[C@H]1CC[C@]3(C)[C@@H](OC(C)=O)CC[C@H]3[C@@H]1CC2`, the TGI was 27.7 µM in the test on ACHN renal; 43.5 µM with CCRF-CEM leukemia; 31.5 µM in the test with DU-145 prostate; 26.4 µM in the test with EKVX NSCLC; 26.9 µM in the test on HCC-2998 colon; 30.2 µM with HCT-116 colon. Further, the TGI in the test on HOP-62 NSCLC is 34.4 µM; in the test on HOP-92 NSCLC it was 23.7 µM; in the test with HT29 colon, 46.2 µM; in the test on IGROV1 ovarian, 32.9 µM; in the test with NCI/ADR-RES ovarian, 41.2 µM; in the test on OVCAR-5 ovarian, 36 µM. Also, the TGI was 47.6 µM with SF-268 CNS; 35.4 µM in the test with SF-539 CNS; 29.9 µM in the test with SK-MEL-28 melanoma; 33.2 µM in the test on SN12C renal; 29.4 µM in the test on U251 CNS; 28.7 µM with UO-31 renal.
On to `CCOC(=O)/C(C[C@H]1OC(C)(C)O[C@@H]1[C@H]1COC(C)(C)O1)=N/O`, for which the TGI in the test with ACHN renal, in the test on CCRF-CEM leukemia, in the test on COLO 205 colon, in the test with DU-145 prostate, with EKVX NSCLC and with HCC-2998 colon was more than 100 µM in each case. Besides, the TGI in the test with HCT-116 colon, in the test on HOP-62 NSCLC, with HOP-92 NSCLC, with HT29 colon, in the test on IGROV1 ovarian and in the test with NCI/ADR-RES ovarian was more than 100 µM each time. The TGI in the test with OVCAR-5 ovarian, with SF-268 CNS, in the test with SF-539 CNS, with SK-MEL-28 melanoma, in the test with SN12C renal and in the test with U251 CNS was more than 100 µM in each case. The compound also returned a TGI in the test with UO-31 renal of more than 100 µM.
Take `O=C(O)C1(Cc2ccc3c(c2)CCC3)Cc2ccccc2C1=O` (stereo not given): the TGI in the test on ACHN renal, in the test on CCRF-CEM leukemia, in the test on COLO 205 colon, in the test on DU-145 prostate, in the test on EKVX NSCLC and in the test with HCC-2998 colon was more than 100 µM throughout. Besides, the TGI is more than 100 µM in the test with HCT-116 colon; more than 100 µM in the test on HOP-62 NSCLC; 87.3 µM in the test on HOP-92 NSCLC; more than 100 µM in the test on HT29 colon; more than 100 µM in the test on IGROV1 ovarian; more than 100 µM in the test with NCI/ADR-RES ovarian. Besides, the TGI in the test with OVCAR-5 ovarian, in the test on SF-268 CNS, with SF-539 CNS, in the test with SK-MEL-28 melanoma, with SN12C renal and with U251 CNS was more than 100 µM in each case. In addition, the TGI in the test on UO-31 renal was more than 100 µM.
With `CC1(C)CC(=O)c2c(nc(SSc3nc4c(c(-c5ccc(Br)cc5)c3C#N)C(=O)CC(C)(C)C4)c(C#N)c2-c2ccc(Br)cc2)C1`, the TGI in the test on ACHN renal, in the test on CCRF-CEM leukemia, in the test with COLO 205 colon, in the test with DU-145 prostate, in the test with EKVX NSCLC and in the test on HCC-2998 colon was more than 10 µM in each case. Further, the TGI in the test with HCT-116 colon, in the test on HOP-62 NSCLC, in the test with HOP-92 NSCLC, with HT29 colon, in the test on IGROV1 ovarian and in the test on NCI/ADR-RES ovarian was more than 10 µM throughout. Besides, the TGI in the test on OVCAR-5 ovarian, in the test with SF-268 CNS, in the test on SF-539 CNS, in the test on SK-MEL-28 melanoma, in the test with SN12C renal and in the test on U251 CNS was more than 10 µM in each case. In addition, in the test on UO-31 renal, the TGI is more than 10 µM.
For the compound `O=c1oc2ccccc2c(O)c1C(c1ccc2c(c1)Cc1ccccc1-2)c1c(O)c2ccccc2oc1=O`, the TGI was 45.6 µM in the test with ACHN renal; more than 100 µM in the test with CCRF-CEM leukemia; 37.2 µM in the test on COLO 205 colon; more than 100 µM in the test with DU-145 prostate; more than 100 µM with EKVX NSCLC; 33.6 µM in the test with HCC-2998 colon. Moreover, the TGI with HCT-116 colon is more than 100 µM; with HOP-62 NSCLC it was more than 100 µM; in the test with HOP-92 NSCLC it was 49.3 µM; with HT29 colon, more than 100 µM; in the test with IGROV1 ovarian, more than 100 µM; with NCI/ADR-RES ovarian it was more than 100 µM. Further, the TGI in the test with OVCAR-5 ovarian is 66.1 µM; with SF-268 CNS, 68.4 µM; with SF-539 CNS it was 43.5 µM; in the test on SK-MEL-28 melanoma, 57.6 µM; with SN12C renal, 41.2 µM; with U251 CNS, 60.3 µM. The same compound came in with a TGI in the test with UO-31 renal of 33.1 µM.
As to `CN(/N=C\c1ccc2ccccc2c1)C1=NCCN1`, the TGI with ACHN renal was 60 µM; in the test with CCRF-CEM leukemia, 65 µM; in the test on COLO 205 colon, 31.9 µM; in the test on DU-145 prostate it was more than 100 µM; in the test with EKVX NSCLC, 63.3 µM; with HCC-2998 colon it was 29.7 µM. The TGI with HCT-116 colon worked out at 31.8 µM; in the test with HOP-62 NSCLC, 40.7 µM; in the test with HOP-92 NSCLC, 9.02 µM; with HT29 colon, 31.3 µM; in the test on IGROV1 ovarian, 41.6 µM; in the test on NCI/ADR-RES ovarian, 82.1 µM. Besides, the TGI was more than 100 µM in the test on OVCAR-5 ovarian; 84.1 µM in the test with SF-268 CNS; 32.8 µM in the test on SF-539 CNS; 28.4 µM with SK-MEL-28 melanoma; 56.5 µM in the test on U251 CNS; 31.7 µM in the test with UO-31 renal.
Regarding `NC(=S)N/N=c1\cc(C(=O)Nc2ccc([N+](=O)[O-])cc2[N+](=O)[O-])oc2ccccc12`, the TGI with ACHN renal, in the test on CCRF-CEM leukemia, in the test on COLO 205 colon, in the test with DU-145 prostate, with EKVX NSCLC and in the test on HCC-2998 colon was more than 100 µM in each case. The TGI in the test on HCT-116 colon, in the test with HOP-62 NSCLC, in the test with HOP-92 NSCLC, with HT29 colon, with IGROV1 ovarian and in the test with NCI/ADR-RES ovarian was more than 100 µM each time. In addition, the TGI in the test with OVCAR-5 ovarian, with SF-268 CNS, in the test with SF-539 CNS, in the test with SK-MEL-28 melanoma, in the test on SN12C renal and in the test on U251 CNS was more than 100 µM throughout. Besides, in the test with UO-31 renal, the TGI was more than 100 µM.
In the case of `COC(=O)c1nc(-c2nc(CCNC(=O)OC(C)(C)C)sc2Cl)sc1Cl`, the TGI in the test on ACHN renal, in the test on CCRF-CEM leukemia, with COLO 205 colon, in the test on DU-145 prostate, with EKVX NSCLC and with HCC-2998 colon was more than 100 µM each time. For the same compound, the TGI with HCT-116 colon is more than 100 µM; in the test with HOP-62 NSCLC, more than 100 µM; in the test on HOP-92 NSCLC, 67.2 µM; with HT29 colon it was more than 100 µM; in the test on IGROV1 ovarian it was more than 100 µM; in the test on NCI/ADR-RES ovarian, more than 100 µM. Besides, the TGI with OVCAR-5 ovarian, in the test with SF-268 CNS, with SF-539 CNS, with SK-MEL-28 melanoma, in the test on U251 CNS and with UO-31 renal was more than 100 µM each time.
Take `COc1cc2ccc1OCc1cccc(n1)COc1ccc(cc1OC)C=Nc1ccc(cc1)-c1ccc(cc1)N=C2`: the TGI with ACHN renal, with CCRF-CEM leukemia, with COLO 205 colon, in the test with DU-145 prostate, in the test with EKVX NSCLC and with HCC-2998 colon was more than 100 µM in each case. Besides, the TGI with HCT-116 colon, in the test on HOP-62 NSCLC, in the test with HOP-92 NSCLC, in the test with HT29 colon, in the test with IGROV1 ovarian and with NCI/ADR-RES ovarian was more than 100 µM throughout. In addition, the TGI with SF-268 CNS, in the test with SF-539 CNS, in the test on SN12C renal, in the test with U251 CNS and in the test with UO-31 renal was more than 100 µM each time.
On to `O=C1CCCCCC1CC(Sc1ccccc1)Sc1ccccc1` (stereo not given), for which the TGI with ACHN renal, in the test with CCRF-CEM leukemia, in the test with COLO 205 colon, in the test with DU-145 prostate, in the test with EKVX NSCLC and in the test with HCC-2998 colon was more than 100 µM throughout. In addition, the TGI with HOP-62 NSCLC, in the test on HOP-92 NSCLC, with HT29 colon, in the test with IGROV1 ovarian, with NCI/ADR-RES ovarian and in the test with OVCAR-5 ovarian was more than 100 µM in each case. The TGI with SF-268 CNS, in the test on SF-539 CNS, with SK-MEL-28 melanoma, in the test with U251 CNS and in the test on UO-31 renal was more than 100 µM each time.

These data come from PubChem BioAssay (NCI).
